According to patent publication US20240066131A1 (Protagonist Therapeutics, Inc., priority 2020, published 2024):
Each block holds one molecule with its values, some of them ahead of it. Starred links: 1 amine or outer side, 2 acyl side, 3 side chain; linkers in the order of their positions; H or OH if unused. Positions of bridges follow the written chain, without caps; N, C: chain ends. Non-standard residues stand in square brackets, D forms with d. Residues, ends and D or L forms follow the SMILES beside them. Groups on a side chain read outwards from the residue. *: point of attachment. C18 diacid = O=C(O)CCCCCCCCCCCCCCCCC(=O)*; Dip = N[C@H](C(=O)O)C(c1ccccc1)c1ccccc1; γGlu = O=C(O)[C@H](CCC(=O)[*:2])N[*:1]; Palmitoyl = CCCCCCCCCCCCCCCC(=O)*; β3hF = N[C@H](CC(=O)O)Cc1ccccc1; Isovaleryl = CC(C)CC(=O)*; AEEA = NCCOCCOCC(=O)O; Ahx = NCCCCCC(=O)O

What was measured:
ferroportin [1] = target: T1, ferroportin (Homo sapiens, UniProt Q9NP59); test: T47D cell-based ferroportin internalization assay in presence of mouse serum albumin (MSA), AF647 detection peptide, flow cytometry; set-up: a human breast carcinoma adherent cell line which endogenously expresses ferroportin; host or cells: T47D; details: second Table 6D, T47D/MSA data; with mouse serum albumin
T1 sequence (Q9NP59 1-571): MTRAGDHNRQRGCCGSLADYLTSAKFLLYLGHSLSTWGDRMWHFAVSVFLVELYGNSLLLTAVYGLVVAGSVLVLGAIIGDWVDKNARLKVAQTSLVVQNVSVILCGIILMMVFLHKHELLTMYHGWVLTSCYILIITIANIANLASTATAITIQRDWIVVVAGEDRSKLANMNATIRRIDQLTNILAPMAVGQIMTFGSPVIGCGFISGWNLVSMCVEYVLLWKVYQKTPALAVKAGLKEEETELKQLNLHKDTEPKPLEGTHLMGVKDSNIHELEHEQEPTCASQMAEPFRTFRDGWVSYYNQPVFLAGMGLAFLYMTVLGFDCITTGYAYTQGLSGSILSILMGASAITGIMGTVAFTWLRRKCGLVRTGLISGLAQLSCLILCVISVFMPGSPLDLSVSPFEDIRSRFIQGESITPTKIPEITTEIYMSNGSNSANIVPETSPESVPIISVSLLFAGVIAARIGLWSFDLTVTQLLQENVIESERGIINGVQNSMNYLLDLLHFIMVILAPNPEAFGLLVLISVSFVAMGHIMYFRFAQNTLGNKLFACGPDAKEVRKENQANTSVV
Experimental: The potency of the peptides in causing ferroportin internalization was evaluated in a T47D cell-based assay. […] In this internalization assay, the potency of the test peptides was evaluated in presence of serum albumin which is the main protein component in the blood. T47D cells were maintained in RPMI media (containing required amount of fetal bovine serum) and regularly sub-cultured. […] The test peptide dilution series were allowed to incubate at room temperature for 30 min. Then the media was aspirated from the 96-well cell plate and test peptide dilution series were added. After 1 hr incubation, the media with test peptides was aspirated out and A1F647-conjugated detection peptide was added at fixed concentration of 200 nM. […] The cells were washed again after a 2 hr incubation in preparation for flow cytometry analysis. The Median Fluorescence Intensity (MFI) of the AF647-positive population was measured (after removing dead cells and non-singlets from the analysis). The MFI values were used to generate a dose-response curve and obtain IC50 potencies for the test peptides. The IC50 potencies were calculated by using 4-parameter non-linear fitting function in Graphpad Prism (Table 6D).

[2] = target: T2, human ferroportin (SLC40A1) fused in frame with GFP, stably expressed in HEK293 cells (human) (UniProt Q9NP59); test: cell-based or functional assay
T2 sequence (looked up): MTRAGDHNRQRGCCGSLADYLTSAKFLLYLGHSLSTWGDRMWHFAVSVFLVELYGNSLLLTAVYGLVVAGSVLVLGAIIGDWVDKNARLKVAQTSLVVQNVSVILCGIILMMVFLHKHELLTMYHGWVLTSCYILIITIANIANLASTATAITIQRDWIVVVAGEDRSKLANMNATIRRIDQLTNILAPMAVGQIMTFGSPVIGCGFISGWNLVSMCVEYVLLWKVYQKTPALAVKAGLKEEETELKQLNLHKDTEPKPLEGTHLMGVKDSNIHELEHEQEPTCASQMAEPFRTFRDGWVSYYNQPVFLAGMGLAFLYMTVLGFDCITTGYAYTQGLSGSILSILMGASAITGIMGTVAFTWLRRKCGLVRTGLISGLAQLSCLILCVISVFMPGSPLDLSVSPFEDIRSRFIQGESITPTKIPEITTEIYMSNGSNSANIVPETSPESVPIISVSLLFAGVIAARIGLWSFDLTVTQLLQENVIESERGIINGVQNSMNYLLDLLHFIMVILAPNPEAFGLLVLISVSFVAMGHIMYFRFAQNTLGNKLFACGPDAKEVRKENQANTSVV

[3] = target: ferroportin endogenously expressed on T47D cells (HTB 133, ATCC) (human) (UniProt Q9NP59); test: cell-based or functional assay
ferroportin [4] = target: T1, ferroportin; test: FPN activity assay: internalization/degradation of ferroportin-GFP in stably transfected HEK293 cells (loss of GFP fluorescence); type: cell-based; details: Table 6A; read-out: FPN EC50
Experimental: Following internalization, the ferroporin protein is degraded.
A retro inverse peptide is a peptide with a reversed sequence in all D amino acids. An example is that Hy-Glu-Thr-His-NH2 becomes Hy-DHis-DThr-DGlu-NH2. The EC50 of these reference compounds for ferroportin internalization/degradation was determined according to the FPN activity assay described above. These peptides served as control standards.

[5] = target: T3, human ferroportin (SLC40A1) fused in frame with GFP, stably expressed in HEK293 cells (human, UniProt Q9NP59 1-571); test: cell-based or functional assay
T3 sequence (looked up): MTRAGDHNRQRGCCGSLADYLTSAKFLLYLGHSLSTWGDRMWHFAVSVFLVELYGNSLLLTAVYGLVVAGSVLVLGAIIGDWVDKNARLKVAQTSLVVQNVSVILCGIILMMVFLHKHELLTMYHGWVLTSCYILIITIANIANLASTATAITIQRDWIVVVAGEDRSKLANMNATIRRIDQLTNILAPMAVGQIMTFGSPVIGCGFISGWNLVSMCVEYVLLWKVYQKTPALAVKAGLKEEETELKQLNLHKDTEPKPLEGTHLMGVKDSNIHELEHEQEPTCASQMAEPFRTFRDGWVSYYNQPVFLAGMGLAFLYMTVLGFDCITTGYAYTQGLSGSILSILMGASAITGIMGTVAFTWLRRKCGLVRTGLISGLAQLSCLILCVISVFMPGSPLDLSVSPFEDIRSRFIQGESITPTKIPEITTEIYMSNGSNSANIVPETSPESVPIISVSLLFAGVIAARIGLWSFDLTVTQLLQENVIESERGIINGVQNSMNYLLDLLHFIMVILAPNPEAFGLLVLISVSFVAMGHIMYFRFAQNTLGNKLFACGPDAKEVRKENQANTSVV

[6] = target: T4, ferroportin endogenously expressed on T47D cells (HTB 133, ATCC) (human, UniProt Q9NP59 1-571); test: cell-based or functional assay
T4 sequence (looked up): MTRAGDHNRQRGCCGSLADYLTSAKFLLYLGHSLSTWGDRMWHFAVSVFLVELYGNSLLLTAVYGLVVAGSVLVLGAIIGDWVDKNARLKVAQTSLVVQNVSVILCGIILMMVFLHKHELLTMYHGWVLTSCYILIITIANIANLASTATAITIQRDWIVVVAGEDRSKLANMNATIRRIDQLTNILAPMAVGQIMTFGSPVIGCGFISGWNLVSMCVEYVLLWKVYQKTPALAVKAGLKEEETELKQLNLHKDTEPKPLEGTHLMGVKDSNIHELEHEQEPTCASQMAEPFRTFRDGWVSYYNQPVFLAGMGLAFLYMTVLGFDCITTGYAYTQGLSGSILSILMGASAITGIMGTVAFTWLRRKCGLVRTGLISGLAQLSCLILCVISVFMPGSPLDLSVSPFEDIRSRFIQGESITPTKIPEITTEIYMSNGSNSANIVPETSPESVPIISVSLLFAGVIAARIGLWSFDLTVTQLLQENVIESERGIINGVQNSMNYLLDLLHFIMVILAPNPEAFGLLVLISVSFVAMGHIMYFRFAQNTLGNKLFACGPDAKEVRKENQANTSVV

- IC50 (ferroportin [1]): 10.6 nM
Molecule: CCCCCCCCCCCCCCCC(=O)NCCCCCC(=O)NCCCC[C@H](NC(=O)[C@@H]1CCCCNC(=O)CC[C@H](NC(=O)CC(C)C)C(=O)N[C@@H]([C@@H](C)O)C(=O)N[C@@H](Cc2c[nH]cn2)C(=O)N[C@@H](C(c2ccccc2)c2ccccc2)C(=O)N2CCC[C@H]2C(=O)N[C@@H](C)C(=O)N[C@@H]([C@@H](C)CC)C(=O)N1)C(N)=O [compound 314] (Isovaleryl-ETH[Dip]PAIKK([Ahx-Palmitoyl])-NH2; lactam 1-8)

- IC50 (ferroportin [1]): 13.3 nM
Molecule: CCCCCCCCCCCCCCCC(=O)N[C@@H](CCC(=O)NCCCC[C@H](NC(=O)[C@@H](NC(=O)[C@H](C)NC(=O)[C@@H]1CCCN1C(=O)[C@@H](NC(=O)[C@H](Cc1c[nH]cn1)NC(=O)[C@@H](NC(=O)[C@H](CCC(=O)O)NC(=O)CC(C)C)[C@@H](C)O)C(c1ccccc1)c1ccccc1)[C@@H](C)CC)C(=O)N[C@H](CC(=O)N[C@H](CCCCN)C(N)=O)Cc1ccccc1)C(=O)O [compound 131] (Isovaleryl-ETH[Dip]PAIK([γGlu-Palmitoyl])[β3hF][dK]-NH2)

- Potency EC50 (nM) [2]: > 10000 nM
Molecule: RI-Mini Hepcidin: Hy-DPhe-DIle-DCys-DIle-DPro-DPhe-DHis-DThr-DAsp-NH2 (peptide)

- T47D MSA IC50 [3]: 101 nM
Molecule: Isovaleric Acid-K-T-H-[Dpa]-P-E-[Lys(Ahx_Palm)]-NH2 (peptide)

- DC50 (ferroportin [4]): 150 nM
- IC50 (ferroportin [1]): 143 nM
Molecule: CC[C@H](C)[C@H](NC(=O)[C@H](C)NC(=O)[C@@H]1CCCN1C(=O)[C@@H](NC(=O)[C@H](Cc1c[nH]cn1)NC(=O)[C@@H](NC(=O)[C@H](CCC(=O)O)NC(=O)CC(C)C)[C@@H](C)O)C(c1ccccc1)c1ccccc1)C(=O)N[C@@H](CCCCNC(=O)COCCOCCNC(=O)COCCOCCNC(=O)CCCCCNC(=O)CCCCCCCCCCCCCCCCC(=O)O)C(=O)N[C@H](CC(N)=O)Cc1ccccc1 [compound 76] (Isovaleryl-ETH[Dip]PAIK([AEEA-AEEA-Ahx-C18 diacid])[β3hF]-NH2)

- T47D MSA IC50 [3]: 15.6 nM
Molecule: Isovaleric Acid-K-T-H-[Dpa]-P-E-[bhPhe]-[Lys(Ahx_Palm)]-NH2 (peptide)

- IC50 (ferroportin [1]): 8.9 nM
Molecule: CCCCCCCCCCCCCCCC(=O)NCCCCCC(=O)NCCCC[C@H](NC(=O)C[C@H](Cc1ccccc1)NC(=O)[C@H]1CCCCNC(=O)CC[C@H](NC(=O)CC(C)C)C(=O)N[C@@H]([C@@H](C)O)C(=O)N[C@@H](Cc2c[nH]cn2)C(=O)N[C@@H](C(c2ccccc2)c2ccccc2)C(=O)N2CCC[C@H]2C(=O)N[C@@H](C)C(=O)N[C@@H]([C@@H](C)CC)C(=O)N1)C(=O)N[C@@H](CCCNC(=N)N)C(N)=O [compound 56] (Isovaleryl-ETH[Dip]PAI[dK][β3hF]K([Ahx-Palmitoyl])R-NH2; lactam 1-8)

- T47D MSA IC50 [3]: 36.4 nM
Molecule: Isovaleric Acid-Dap-T-H-[Dpa]-P-A-I-E-[bhPhe]-[Lys(Ahx_Palm)]-R-NH2 (peptide)

- IC50 (ferroportin [1]): 31.2 nM
Molecule: CCCCCCCCCCCCCCCC(=O)NCCCCCC(=O)NCCCC[C@H](NC(=O)[C@@H]1CCC(=O)NCCCC[C@H](NC(=O)CC(C)C)C(=O)N[C@@H]([C@@H](C)O)C(=O)N[C@@H](Cc2c[nH]cn2)C(=O)N[C@@H](C(c2ccccc2)c2ccccc2)C(=O)N2CCC[C@H]2C(=O)N[C@@H](C)C(=O)N[C@@H]([C@@H](C)CC)C(=O)N1)C(N)=O [compound 309] (Isovaleryl-KTH[Dip]PAIEK([Ahx-Palmitoyl])-NH2; lactam 1-8)

- IC50 (ferroportin [1]): 11.4 nM
Molecule: CCCCCCCCCCCCCCCC(=O)NCCCCCC(=O)NCCCC[C@H](NC(=O)[C@@H](NC(=O)[C@H](C)NC(=O)[C@@H]1CCCN1C(=O)[C@H](Cc1ccccc1)NC(=O)[C@H](Cc1c[nH]cn1)NC(=O)[C@@H](NC(=O)[C@H](CCC(=O)O)NC(=O)CC(C)C)[C@@H](C)O)[C@@H](C)CC)C(=O)N[C@@H](Cc1ccccc1)C(=O)N[C@@H](CCC(=O)O)C(=O)N1CCC[C@H]1C(=O)N[C@@H](CCCNC(=N)N)C(=O)N[C@@H](CO)C(=O)N[C@@H](CCCCN)C(=O)NCC(=O)N[C@@H](C)C(=O)N[C@@H](CCCCN)C(N)=O [compound 81] (Isovaleryl-ETHFPAIK([Ahx-Palmitoyl])FEPRSKGAK-NH2)

- FPN IC50 [5]: 30.6 nM
- T47D IC50 [6]: 4.05 nM
Molecule: Isovaleryl-ETH[Dip]PA[dK](Gal)K([Ahx-Palmitoyl])[β3hF]-NH2 [Isovaleric Acid-E-T-H-[Dpa]-P-A-d[Lys(Gal-[Lys(Ahx_Palm)]-[bhPhe]-NH2]
